Data: ChEMBL document CHEMBL1201862, “PubChem BioAssay data set” (2004)
Calls of active or inactive are those of the source.

Experiments:
[1] = HEK-293T cell viability reduction – luminescence, B-cell screen hits, cytotoxicity control for BCR NF-kB inhibitor project, dose response (AID 489021); format: functional, cell-based;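 also: HEK-293T cells carrying an NF-kB luciferase reporter; cells exposed to compound for about 14 hours before viability readout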
HEK293 = experiment: cells; format: functional, cell-based; conditions: Homo sapiens
[2] = biological target: T1, Nuclear receptor subfamily 0 group B member 1 (Homo sapiens, UniProt P51843); experiment: Luminescence-based cell-based high throughput dose response assay for inhibitors of the orphan nuclear receptor subfamily 0, group B, member 1 (DAX1; NR0B1). [Related pubchem assays (depositor defined):AID504766, AID504790]; format: functional
T1 sequence (P51843 whole entry): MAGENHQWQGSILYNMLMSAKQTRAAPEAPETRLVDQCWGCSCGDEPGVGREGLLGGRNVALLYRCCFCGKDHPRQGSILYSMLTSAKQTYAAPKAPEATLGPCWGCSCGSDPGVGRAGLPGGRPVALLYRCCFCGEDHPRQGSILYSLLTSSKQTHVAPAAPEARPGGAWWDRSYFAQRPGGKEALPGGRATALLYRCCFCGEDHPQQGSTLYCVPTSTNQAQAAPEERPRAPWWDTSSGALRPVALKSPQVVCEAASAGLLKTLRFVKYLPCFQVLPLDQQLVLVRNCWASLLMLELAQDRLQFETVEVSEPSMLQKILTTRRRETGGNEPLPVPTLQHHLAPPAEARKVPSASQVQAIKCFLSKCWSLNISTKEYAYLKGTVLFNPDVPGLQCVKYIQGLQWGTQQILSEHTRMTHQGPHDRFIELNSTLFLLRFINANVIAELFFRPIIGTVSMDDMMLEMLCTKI

[3] = A cytotoxicity screen of small molecule inhibitors of the PhoP region in Salmonella typhi identified in the primary screen. [Related pubchem assays: 1850, 1864, 1985 ]; format: functional
[4] = biological target: T2, Rac GTPase-activating protein 1 (Homo sapiens, UniProt Q9H0H5); experiment: blockers of MgcRacGAP-driven Rac1 GTP hydrolysis – biochemical, ADP Hunter fluorescence, primary and confirmatory, confirmation (AID 624330); format: functional
T2 sequence (Q9H0H5 whole entry): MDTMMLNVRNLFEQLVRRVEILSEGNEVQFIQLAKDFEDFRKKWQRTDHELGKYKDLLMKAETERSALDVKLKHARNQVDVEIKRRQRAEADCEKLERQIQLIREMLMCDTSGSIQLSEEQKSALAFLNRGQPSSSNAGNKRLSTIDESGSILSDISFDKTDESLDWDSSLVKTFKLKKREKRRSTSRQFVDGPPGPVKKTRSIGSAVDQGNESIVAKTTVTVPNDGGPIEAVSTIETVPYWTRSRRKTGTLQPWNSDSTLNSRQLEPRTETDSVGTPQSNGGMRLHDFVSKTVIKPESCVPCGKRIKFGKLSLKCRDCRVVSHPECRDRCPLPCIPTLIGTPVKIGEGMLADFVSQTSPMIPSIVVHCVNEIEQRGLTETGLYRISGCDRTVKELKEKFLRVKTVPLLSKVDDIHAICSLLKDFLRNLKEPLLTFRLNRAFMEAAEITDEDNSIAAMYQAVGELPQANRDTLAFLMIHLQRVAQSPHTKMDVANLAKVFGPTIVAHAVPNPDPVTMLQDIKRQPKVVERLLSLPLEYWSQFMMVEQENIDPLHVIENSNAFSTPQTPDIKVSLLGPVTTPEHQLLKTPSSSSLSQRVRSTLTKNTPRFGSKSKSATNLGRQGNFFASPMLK

Protein RecA = biological target: T3, Protein RecA (Mycobacterium tuberculosis, UniProt P9WHJ3); experiment: Fluorescence Cell-Free Homogeneous Dose Retest to Identify Inhibitors of RecA-Intein Splicing Activity. [Related pubchem assays (depositor defined):AID2097, AID2223, AID489010, AID492950]; format: functional
T3 sequence (P9WHJ3 whole entry): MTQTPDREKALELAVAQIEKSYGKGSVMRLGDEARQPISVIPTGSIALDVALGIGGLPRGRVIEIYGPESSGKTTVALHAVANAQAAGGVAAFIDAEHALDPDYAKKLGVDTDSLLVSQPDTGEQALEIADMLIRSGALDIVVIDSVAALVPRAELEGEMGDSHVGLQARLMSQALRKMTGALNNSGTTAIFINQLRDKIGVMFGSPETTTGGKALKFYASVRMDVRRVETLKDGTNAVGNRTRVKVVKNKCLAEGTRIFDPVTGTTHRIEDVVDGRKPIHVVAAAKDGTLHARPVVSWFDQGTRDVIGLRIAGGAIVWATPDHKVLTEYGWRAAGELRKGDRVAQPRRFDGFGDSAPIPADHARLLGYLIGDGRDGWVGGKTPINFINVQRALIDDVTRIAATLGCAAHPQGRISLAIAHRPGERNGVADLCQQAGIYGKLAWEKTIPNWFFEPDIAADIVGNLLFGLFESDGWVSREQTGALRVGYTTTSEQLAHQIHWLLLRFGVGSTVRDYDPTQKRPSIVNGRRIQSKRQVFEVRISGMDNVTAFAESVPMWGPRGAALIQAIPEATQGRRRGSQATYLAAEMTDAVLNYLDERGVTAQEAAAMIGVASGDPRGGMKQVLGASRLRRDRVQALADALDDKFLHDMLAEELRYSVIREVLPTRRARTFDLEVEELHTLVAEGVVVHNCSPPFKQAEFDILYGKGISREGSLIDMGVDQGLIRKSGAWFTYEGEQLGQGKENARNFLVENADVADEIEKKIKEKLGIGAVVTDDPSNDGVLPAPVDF

[5] = biological target: Induced myeloid leukemia cell differentiation protein Mcl-1 (Homo sapiens, UniProt Q07820); format: functional
[6] = biological target: T4, Calpain-2 catalytic subunit (Sus scrofa, UniProt P43367); experiment: m-calpain protease blockers, concentration series – biochemical, fluorogenic peptide substrate, dose response (AID 1420); format: functional
T4 sequence (P43367 whole entry): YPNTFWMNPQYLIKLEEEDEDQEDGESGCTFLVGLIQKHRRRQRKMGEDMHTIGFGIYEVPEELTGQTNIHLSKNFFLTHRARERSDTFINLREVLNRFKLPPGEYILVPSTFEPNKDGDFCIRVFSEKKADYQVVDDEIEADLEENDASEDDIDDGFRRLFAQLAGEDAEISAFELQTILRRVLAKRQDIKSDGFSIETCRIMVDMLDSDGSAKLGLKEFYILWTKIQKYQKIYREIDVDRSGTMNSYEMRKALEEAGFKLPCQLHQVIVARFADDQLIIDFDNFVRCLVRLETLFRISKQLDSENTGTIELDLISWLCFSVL

[7] = biological target: T5, Replicative DNA helicase DnaB (Mycobacterium tuberculosis, UniProt P9WMR3); experiment: DnaB intein splicing inhibitors, dose response, biochemical, cell-free fluorescence (AID 449749); format: functional
T5 sequence (P9WMR3 whole entry): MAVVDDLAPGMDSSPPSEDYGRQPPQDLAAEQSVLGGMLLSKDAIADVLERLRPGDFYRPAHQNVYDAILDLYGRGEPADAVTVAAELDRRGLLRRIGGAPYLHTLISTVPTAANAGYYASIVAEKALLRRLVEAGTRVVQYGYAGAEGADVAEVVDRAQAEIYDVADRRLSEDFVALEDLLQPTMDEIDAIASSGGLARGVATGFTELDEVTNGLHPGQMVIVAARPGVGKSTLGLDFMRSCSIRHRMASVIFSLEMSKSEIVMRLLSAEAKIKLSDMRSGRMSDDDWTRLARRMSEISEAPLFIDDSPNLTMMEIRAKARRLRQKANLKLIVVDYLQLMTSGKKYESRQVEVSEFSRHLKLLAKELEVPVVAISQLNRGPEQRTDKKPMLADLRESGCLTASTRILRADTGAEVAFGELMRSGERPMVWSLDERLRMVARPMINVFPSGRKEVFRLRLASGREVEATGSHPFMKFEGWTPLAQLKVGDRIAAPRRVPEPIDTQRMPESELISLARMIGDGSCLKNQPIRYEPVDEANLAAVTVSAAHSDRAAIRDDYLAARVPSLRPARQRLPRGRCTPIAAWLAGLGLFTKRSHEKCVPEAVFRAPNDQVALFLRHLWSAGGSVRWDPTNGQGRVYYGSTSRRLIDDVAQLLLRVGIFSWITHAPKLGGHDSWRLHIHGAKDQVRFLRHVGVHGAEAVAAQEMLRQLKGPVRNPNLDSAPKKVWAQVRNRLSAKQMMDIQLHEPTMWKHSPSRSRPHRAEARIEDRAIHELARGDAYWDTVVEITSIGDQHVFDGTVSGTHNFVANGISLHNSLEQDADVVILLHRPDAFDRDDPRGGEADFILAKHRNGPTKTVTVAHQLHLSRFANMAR

Aminopeptidase N = biological target: T6, Aminopeptidase N (Plasmodium falciparum FcB1/Columbia, UniProt O96935); experiment: malaria alanyl aminopeptidase activity blockers – biochemical, fluorogenic H-Leu-NHMec substrate, 1536-well (AID 1445); set-up: species or system Plasmodium falciparum 3D7, 3D7
T6 sequence (O96935 whole entry): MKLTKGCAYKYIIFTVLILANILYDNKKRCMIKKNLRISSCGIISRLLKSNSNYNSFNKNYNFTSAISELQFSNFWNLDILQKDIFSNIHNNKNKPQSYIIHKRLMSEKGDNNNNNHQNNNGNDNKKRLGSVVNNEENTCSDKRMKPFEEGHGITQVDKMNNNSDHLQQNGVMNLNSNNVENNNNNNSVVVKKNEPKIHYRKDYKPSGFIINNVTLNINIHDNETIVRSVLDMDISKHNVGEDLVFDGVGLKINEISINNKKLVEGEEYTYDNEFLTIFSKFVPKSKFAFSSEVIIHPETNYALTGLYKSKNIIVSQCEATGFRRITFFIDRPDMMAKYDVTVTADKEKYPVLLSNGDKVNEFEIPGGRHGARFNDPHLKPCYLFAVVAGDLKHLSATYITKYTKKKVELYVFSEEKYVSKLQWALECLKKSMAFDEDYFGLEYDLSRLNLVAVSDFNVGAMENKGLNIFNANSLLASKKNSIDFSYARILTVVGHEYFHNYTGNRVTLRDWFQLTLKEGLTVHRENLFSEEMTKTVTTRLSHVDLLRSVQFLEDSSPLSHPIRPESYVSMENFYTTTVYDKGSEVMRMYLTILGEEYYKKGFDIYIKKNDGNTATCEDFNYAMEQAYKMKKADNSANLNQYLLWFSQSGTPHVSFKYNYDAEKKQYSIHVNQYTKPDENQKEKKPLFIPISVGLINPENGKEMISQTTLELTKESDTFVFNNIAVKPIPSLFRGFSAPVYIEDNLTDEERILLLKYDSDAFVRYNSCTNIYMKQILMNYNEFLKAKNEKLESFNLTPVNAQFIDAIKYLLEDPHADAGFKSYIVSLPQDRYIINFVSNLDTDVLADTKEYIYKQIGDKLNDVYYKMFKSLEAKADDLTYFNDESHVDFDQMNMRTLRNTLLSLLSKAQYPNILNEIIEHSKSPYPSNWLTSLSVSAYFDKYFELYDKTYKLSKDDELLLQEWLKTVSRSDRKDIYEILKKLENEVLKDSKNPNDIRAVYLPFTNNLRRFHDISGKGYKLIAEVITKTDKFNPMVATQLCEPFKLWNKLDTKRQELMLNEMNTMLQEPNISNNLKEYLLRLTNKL

[8] = CCR5-tropic HIV-1 fusion blockers – cell-based, CCR5-tropic Env, dose response (AID 2279); format: functional
[9] = biological target: T7, Acyl-homoserine lactone acylase PvdQ (Pseudomonas aeruginosa (strain LESB58), UniProt Q9I194); experiment: PvdQ acylase enzyme activity blockers – biochemical, fluorescence, plate reader and imaging, cherry-picks, dose response (AID 493231)
T7 sequence (Q9I194 whole entry): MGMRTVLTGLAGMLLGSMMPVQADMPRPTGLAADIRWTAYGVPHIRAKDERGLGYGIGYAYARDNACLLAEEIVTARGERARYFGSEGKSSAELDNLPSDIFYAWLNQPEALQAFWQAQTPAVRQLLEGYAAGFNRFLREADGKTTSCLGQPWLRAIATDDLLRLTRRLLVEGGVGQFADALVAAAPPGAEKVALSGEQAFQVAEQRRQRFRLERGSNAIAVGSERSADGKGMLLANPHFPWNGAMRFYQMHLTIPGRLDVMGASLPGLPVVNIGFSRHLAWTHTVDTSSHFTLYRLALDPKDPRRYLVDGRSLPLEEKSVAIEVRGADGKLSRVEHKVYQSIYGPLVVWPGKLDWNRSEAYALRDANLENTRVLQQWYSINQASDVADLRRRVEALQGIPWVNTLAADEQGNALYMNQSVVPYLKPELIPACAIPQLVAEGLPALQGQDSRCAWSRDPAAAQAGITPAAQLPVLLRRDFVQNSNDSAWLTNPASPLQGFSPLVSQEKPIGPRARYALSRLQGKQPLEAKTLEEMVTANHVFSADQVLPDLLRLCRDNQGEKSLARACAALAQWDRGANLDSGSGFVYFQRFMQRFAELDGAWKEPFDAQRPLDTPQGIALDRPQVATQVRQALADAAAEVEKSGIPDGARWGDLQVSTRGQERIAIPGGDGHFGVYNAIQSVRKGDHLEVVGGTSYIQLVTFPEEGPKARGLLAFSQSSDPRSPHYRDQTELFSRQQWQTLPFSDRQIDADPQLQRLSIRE

Sequence of Induced myeloid leukemia cell differentiation protein Mcl-1 (Q07820 whole entry): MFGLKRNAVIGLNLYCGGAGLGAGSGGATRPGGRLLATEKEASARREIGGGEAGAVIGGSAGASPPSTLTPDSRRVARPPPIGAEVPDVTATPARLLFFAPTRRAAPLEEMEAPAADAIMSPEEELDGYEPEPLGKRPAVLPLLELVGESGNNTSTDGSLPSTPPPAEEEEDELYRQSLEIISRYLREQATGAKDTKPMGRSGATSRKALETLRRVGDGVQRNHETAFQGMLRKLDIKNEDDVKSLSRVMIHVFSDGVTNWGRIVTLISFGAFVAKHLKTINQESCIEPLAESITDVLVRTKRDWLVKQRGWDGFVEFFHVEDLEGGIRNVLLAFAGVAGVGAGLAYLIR

## Cn1c(=O)n(C)c2cc(C(=O)Nc3ccc4c(c3)OCO4)ccc21
[1]
  IC50: > 80 µM (inactive)
HEK293
  IC50: > 67.5 µM (inactive)
[2]
  IC50: 4.57 µM (active)

## C=C(C)Cn1c(SCC#N)nc2ccccc2c1=O
[3]
  EC50: > 50 µM (active)

## CCN(CC)c1ccc(CNc2nc3ccccc3n2C)cc1
[3]
  EC50: > 50 µM (active)

## Cc1ccc(NC(=O)CN(C)C2CCCCC2)cc1Br
[3]
  EC50: > 50 µM (active)
[4]
  IC50: 137 µM (active)

## COc1cc(/C=C2/SC(=S)NC2=O)ccc1OS(=O)(=O)c1ccc(C)cc1
Protein RecA
  EC50: 11.9 µM (active)
[5]
  IC50: 3.44 µM (active)
[6]
  IC50: 13.4 µM (not active)
[7]
  AC50: 3.21 µM (active)
Aminopeptidase N
  IC50: 51.8 µM (active)
[8]
  IC50: 10.3 µM (active)

## COc1ccc(N2CCN(C(CNC(=O)c3ccc4c(c3)OCO4)c3ccco3)CC2)cc1 (stereo not drawn)
[3]
  EC50: > 50 µM (active)

## O=C1C2C3C=CC(C4CC34)C2C(=O)N1Cc1ccco1 (stereo not drawn)
[9]
  AC50: 12.4 µM (active)

## N#Cc1cc(-c2ccccc2)cnc1Cl
[9]
  AC50: 6.29 µM (active)

## O=C1C=C(c2cccc(Br)c2)C[C@@H](c2ccc(F)cc2)C1
[9]
  AC50: 48.9 µM (active)

## O=C(O)CCc1nc(-c2ccc(Cl)cc2)no1
[9]
  AC50: 16.1 µM (active)
